These results are taken from paper PMC7997411, “Discovery and Optimization of Selective Inhibitors of Meprin α (Part II)” (Pharmaceuticals, 2021).

The structures appear in SMILES notation. Where “and” joins values, the source holds several entries; their conditions need not be identical. Equal entries are not always repeated. Where two headings read alike, the source gives them in different places. Where only a bound is given, the exact number is not on record here.

Test [1] concerns the target T1, meprin α (Homo sapiens, UniProt Q16819).
T1 construct: Strep-tag; made in house; host or cells: BTI-TN-5B1-4 insect cells (baculovirus, amplified in Sf9)
T1 sequence (Q16819 66-746): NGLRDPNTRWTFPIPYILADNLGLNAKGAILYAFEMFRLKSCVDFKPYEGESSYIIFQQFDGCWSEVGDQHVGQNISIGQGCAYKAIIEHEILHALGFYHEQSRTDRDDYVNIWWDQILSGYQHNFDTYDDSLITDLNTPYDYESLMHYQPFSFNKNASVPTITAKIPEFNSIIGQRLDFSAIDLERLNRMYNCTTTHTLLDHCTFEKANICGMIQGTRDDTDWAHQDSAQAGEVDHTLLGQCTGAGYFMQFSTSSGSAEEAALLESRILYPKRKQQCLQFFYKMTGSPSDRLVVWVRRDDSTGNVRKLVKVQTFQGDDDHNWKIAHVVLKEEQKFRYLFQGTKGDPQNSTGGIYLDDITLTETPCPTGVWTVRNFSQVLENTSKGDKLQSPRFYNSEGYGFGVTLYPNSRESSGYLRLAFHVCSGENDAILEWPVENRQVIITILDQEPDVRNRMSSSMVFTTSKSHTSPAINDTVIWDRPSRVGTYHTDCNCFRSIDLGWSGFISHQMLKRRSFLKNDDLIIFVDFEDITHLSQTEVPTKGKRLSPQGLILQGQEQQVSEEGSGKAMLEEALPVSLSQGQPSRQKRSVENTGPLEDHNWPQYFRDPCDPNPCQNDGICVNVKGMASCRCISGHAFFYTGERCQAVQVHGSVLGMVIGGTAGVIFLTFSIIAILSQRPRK
The test can be described thus: Meprin α assay in a 384-well plate (fluorogenic substrate Mca-YVADAPK-K(Dnp)). It is filed as biochemical. The procedure: (§1) Recombinant human meprin α and meprin β were expressed using the Bac-to-Bac expression system (Gibco Life Technologies, Paisley, UK) as described before. Media and supplements were obtained from Gibco Life Technologies. Recombinant Baculoviruses were amplified in adherently growing Spodoptera frugiperda (Sf)9 insect cells at 27 °C in Grace’s insect medium supplemented with 10% fetal bovine serum, 50 units/mL penicillin, and 50 μg/mL streptomycin. Protein expression was performed in 500 mL suspension cultures of BTI-TN-5B1-4 insect cells growing in Express Five SFM supplemented with 4 mM glutamine, 50 units/mL penicillin, and 50 μg/mL streptomycin in Fernbach-flasks using a Multitron orbital shaker (INFORS AG, Bottmingen, Switzerland). Cells were infected at a density of 2 × 10^6 cells/mL with an amplified viral stock at a MOI of ~10. […] Meprins were activated by trypsin, which was removed afterwards by affinity chromatography using a column containing immobilized chicken ovomucoid, a trypsin inhibitor.
(§2) Both assays followed the same general protocol. […] After 30 min incubation at RT, the reactions were started by addition of 5 µL of 2× solutions of substrates (20 µM, meprin α Mca-YVADAPK-K(Dnp), and for meprin β Mca-EDEDED-K(Dnp)).

Another test has as its target T2, human meprin β (Homo sapiens, UniProt Q16820).
T2 construct: His-tag; made in house; host or cells: BTI-TN-5B1-4 insect cells (baculovirus, amplified in Sf9)
T2 sequence (Q16820 62-701): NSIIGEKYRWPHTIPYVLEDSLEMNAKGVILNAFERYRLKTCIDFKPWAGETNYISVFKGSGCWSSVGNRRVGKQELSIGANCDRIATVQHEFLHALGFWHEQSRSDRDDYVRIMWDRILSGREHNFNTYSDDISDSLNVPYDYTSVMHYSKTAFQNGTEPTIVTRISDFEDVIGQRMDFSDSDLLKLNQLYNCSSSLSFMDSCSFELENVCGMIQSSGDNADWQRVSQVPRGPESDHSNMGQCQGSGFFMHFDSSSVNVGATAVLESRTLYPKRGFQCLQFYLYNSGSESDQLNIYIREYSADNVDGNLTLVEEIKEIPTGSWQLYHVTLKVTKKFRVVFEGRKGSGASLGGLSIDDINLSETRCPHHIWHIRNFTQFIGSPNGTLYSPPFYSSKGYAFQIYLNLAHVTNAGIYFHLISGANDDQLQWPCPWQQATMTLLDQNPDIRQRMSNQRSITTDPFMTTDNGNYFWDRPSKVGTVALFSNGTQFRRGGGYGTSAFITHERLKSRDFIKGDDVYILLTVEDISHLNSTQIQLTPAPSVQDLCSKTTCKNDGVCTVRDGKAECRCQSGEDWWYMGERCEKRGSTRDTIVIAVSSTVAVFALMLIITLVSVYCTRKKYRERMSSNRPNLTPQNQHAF
The experiment in a line: Meprin β assay in a 384-well plate (fluorogenic substrate Mca-EDEDED-K(Dnp)). It is filed as biochemical. As for the experimental part: as §1, §2

Another test has as its target T3, MMP2 (Homo sapiens, UniProt P08253).
T3 construct: purchased R&D Systems 902-MP
T3 sequence (P08253 110-660): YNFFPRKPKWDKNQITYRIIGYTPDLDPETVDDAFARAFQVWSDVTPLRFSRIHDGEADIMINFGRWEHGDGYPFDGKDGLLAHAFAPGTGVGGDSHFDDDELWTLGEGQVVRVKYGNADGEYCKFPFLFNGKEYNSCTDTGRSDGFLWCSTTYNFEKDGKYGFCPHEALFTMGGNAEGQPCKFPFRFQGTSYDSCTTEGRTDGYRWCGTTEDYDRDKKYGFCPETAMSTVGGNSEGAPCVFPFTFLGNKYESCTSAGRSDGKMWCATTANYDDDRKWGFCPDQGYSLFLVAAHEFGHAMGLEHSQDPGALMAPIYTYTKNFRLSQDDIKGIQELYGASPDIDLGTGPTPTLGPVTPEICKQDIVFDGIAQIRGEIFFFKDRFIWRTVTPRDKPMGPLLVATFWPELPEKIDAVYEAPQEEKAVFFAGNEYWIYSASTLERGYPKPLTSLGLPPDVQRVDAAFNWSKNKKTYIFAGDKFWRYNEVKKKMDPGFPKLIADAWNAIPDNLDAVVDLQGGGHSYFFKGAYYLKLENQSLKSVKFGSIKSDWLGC
As to conditions: single value given, at 10 μM ref 11; cited from earlier work.

A further test has as its target T4, MMP13 (Homo sapiens, UniProt P45452).
T4 construct: purchased R&D Systems 511-MM
The note with it: single value given, at 10 μM ref 11; cited from earlier work.

Another test addresses T5, ADAM10 (Homo sapiens, UniProt O14672).
T5 construct: purchased R&D Systems 936-AD
T5 sequence (O14672 214-748): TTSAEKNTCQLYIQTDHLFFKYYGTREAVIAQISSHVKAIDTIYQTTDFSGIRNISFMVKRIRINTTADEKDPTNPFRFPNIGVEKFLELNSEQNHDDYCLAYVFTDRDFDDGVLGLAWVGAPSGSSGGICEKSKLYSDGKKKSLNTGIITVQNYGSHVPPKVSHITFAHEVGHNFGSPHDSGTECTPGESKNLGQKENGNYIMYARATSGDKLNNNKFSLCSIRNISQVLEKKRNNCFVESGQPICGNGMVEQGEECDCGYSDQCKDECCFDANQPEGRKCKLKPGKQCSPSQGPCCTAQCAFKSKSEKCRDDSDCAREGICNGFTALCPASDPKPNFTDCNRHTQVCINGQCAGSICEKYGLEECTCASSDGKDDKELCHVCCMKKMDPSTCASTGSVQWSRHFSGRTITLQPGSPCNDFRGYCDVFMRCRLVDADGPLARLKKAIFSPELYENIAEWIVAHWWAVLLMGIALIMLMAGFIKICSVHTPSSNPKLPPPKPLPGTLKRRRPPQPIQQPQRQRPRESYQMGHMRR
The note with it: single value given, at 10 μM ref 11; cited from earlier work.

The target of another test is T6, MMP9 (Homo sapiens, UniProt P14780).
T6 construct: purchased R&D Systems 911-MP
T6 sequence (P14780 94-707): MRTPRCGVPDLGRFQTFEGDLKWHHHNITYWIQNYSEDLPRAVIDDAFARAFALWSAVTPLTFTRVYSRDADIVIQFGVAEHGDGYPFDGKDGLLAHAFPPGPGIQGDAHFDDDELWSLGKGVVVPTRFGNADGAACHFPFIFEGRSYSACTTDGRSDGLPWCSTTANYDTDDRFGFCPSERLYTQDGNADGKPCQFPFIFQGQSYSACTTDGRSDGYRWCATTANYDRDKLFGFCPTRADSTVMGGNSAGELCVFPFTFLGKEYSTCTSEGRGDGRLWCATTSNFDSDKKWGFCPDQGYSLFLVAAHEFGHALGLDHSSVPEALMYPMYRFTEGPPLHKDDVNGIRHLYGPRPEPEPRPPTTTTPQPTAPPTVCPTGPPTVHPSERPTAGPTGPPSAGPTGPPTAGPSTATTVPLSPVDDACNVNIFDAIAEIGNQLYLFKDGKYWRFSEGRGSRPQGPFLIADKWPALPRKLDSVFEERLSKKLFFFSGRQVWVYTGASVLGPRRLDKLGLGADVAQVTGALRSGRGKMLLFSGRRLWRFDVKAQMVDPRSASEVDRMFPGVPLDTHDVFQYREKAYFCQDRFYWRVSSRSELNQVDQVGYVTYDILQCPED
As to conditions: single value given, at 10 μM ref 11; cited from earlier work.

Test [2] has as its system Meprin α. The note with it: cited from earlier work.
The next test deals with T7, ADAM17 (Homo sapiens, UniProt P78536).
T7 construct: purchased R&D Systems 930-ADB
T7 sequence (P78536 215-824): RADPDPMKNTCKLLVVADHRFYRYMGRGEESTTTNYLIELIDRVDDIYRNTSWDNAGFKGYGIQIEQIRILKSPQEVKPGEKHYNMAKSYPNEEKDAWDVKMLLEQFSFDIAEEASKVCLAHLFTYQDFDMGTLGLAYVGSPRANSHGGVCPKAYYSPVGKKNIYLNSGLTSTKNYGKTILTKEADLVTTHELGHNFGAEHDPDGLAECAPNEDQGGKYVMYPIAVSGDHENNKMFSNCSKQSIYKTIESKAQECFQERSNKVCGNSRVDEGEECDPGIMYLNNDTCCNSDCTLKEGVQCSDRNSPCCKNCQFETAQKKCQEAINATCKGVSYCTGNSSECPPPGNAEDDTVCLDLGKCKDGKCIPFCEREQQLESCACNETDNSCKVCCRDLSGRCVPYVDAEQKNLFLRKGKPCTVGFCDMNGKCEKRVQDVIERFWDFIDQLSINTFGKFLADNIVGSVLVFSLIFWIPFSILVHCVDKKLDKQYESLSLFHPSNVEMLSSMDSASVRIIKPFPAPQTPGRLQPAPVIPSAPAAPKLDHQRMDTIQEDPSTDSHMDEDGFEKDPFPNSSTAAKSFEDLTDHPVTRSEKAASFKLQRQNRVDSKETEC
As to conditions: single value given, at 10 μM ref 11; cited from earlier work.

The term IC50 denotes the concentration at which inhibition is half-maximal.

`COc1cc(OC)nc(SCc2nnc(SCC(=O)NO)n2-c2ccccc2OC)n1` [SR24459, 2-((5-(((4,6-dimethoxypyrimidin-2-yl)thio)methyl)-4-(2-methoxyphenyl)-4H-1,2,4-triazol-3-yl)thio)-N-hydroxyacetamide]: the IC50 at meprin α [1] (triplicate, ± SD) was 12.1 ± 3.9 µM; at human meprin β (triplicate, ± SD) it was 52 ± 1 µM.
Consider `O=C(CSc1nnc(NC(=O)COc2ccccc2)s1)NO` [SR19848], for which the results for the IC50 against meprin α [1] and on human meprin β were 0.217 µM and 0.329 µM, respectively. On meprin α [1] (Figure 1), the “meprin α/β selectivity (in words)” value is recorded as “no meprin α/β selectivity”.
`COc1cc(OC)nc(SCc2nnc(SCC(=O)NO)n2-c2ccc(N3CCOCC3)cc2)n1` [SR26466, 2-((5-(((4,6-dimethoxypyrimidin-2-yl)thio)methyl)-4-(4-morpholinophenyl)-4H-1,2,4-triazol-3-yl)thio)-N-hydroxyacetamide]: the IC50 on meprin α [1] (triplicate, ± SD) was 1.1 ± 0.1 µM; against human meprin β (triplicate, ± SD) it was above 100 µM.
On the same counts, the results for `COc1cc(OC)nc(SCc2nnc(SCC(=O)NO)n2-c2cccnc2)n1` [SR24718, 2-((5-(((4,6-dimethoxypyrimidin-2-yl)thio)methyl)-4-(pyridin-3-yl)-4H-1,2,4-triazol-3-yl)thio)-N-hydroxyacetamide] are 10.1 ± 2.3 µM and above 100 µM.
On to `COc1cc(OC)nc(SCc2nnc(SCC(=O)NO)n2-c2cccc3ccccc23)n1` [SR26467, 2-((5-(((4,6-dimethoxypyrimidin-2-yl)thio)methyl)-4-(naphthalen-1-yl)-4H-1,2,4-triazol-3-yl)thio)-N-hydroxyacetamide], for which the IC50 was 2 ± 0.3 µM on meprin α [1] (triplicate, ± SD) and above 100 µM against human meprin β (triplicate, ± SD).
As to `COc1ccc(-n2c(CSc3nc(OC)cc(OC)n3)nnc2SCC(=O)NO)cc1` [SR24144, 2-((5-(((4,6-dimethoxypyrimidin-2-yl)thio)methyl)-4-(4-methoxyphenyl)-4H-1,2,4-triazol-3-yl)thio)-N-hydroxyacetamide], the IC50 against meprin α [1] (triplicate, ± SD) was 8.7 ± 1.1 µM; on human meprin β (triplicate, ± SD), above 100 µM. The “inhibition of meprin β at 100 μM (in words)” value against human meprin β (100 μM) was “complete lack of inhibition”.
For `COc1ccc(-n2c(CSc3nc(C)cc(C)n3)nnc2SCC(=O)NO)cc1` [SR24139, 2-((5-(((4,6-dimethylpyrimidin-2-yl)thio)methyl)-4-(4-methoxyphenyl)-4H-1,2,4-triazol-3-yl)thio)-N-hydroxyacetamide], the IC50 on meprin α [1] (triplicate, ± SD) was found to be 4.1 ± 0.8 µM; at human meprin β (triplicate, ± SD), 60 ± 7 µM.
With `COc1cc(OC)nc(SCc2nnc(SCC(=O)NO)n2-c2ccc(C(F)(F)F)cc2)n1` [SR24003, 2-((5-(((4,6-dimethoxypyrimidin-2-yl)thio)methyl)-4-(4-(trifluoromethyl)phenyl)-4H-1,2,4-triazol-3-yl)thio)-N-hydroxyacetamide], the IC50 against meprin α [1] (triplicate, ± SD) is 5.4 ± 1.2 µM; on human meprin β (triplicate, ± SD), above 100 µM.
Consider `COc1cc(OC)nc(SCc2nnc(SCC(=O)NO)n2-c2cccc(C)c2)n1` [SR24467, 2-((5-(((4,6-dimethoxypyrimidin-2-yl)thio)methyl)-4-(m-tolyl)-4H-1,2,4-triazol-3-yl)thio)-N-hydroxyacetamide], for which the IC50 against meprin α [1] (triplicate, ± SD) is 2 µM and 10.3 µM; at human meprin β (triplicate, ± SD), above 100 µM.
Regarding `COc1cccc(-n2c(CSc3nc(OC)cc(OC)n3)nnc2SCC(=O)NO)c1` [SR24460, 2-((5-(((4,6-dimethoxypyrimidin-2-yl)thio)methyl)-4-(3-methoxyphenyl)-4H-1,2,4-triazol-3-yl)thio)-N-hydroxyacetamide], the IC50 at meprin α [1] (triplicate, ± SD) came out at 10.3 ± 1.1 µM; at human meprin β (triplicate, ± SD) it was 59 ± 10 µM.
Take `COc1cc(OC)nc(SCc2nnc(SCC(=O)NO)n2-c2ccc(Br)cc2)n1` [SR24462, 2-((4-(4-bromophenyl)-5-(((4,6-dimethoxypyrimidin-2-yl)thio)methyl)-4H-1,2,4-triazol-3-yl)thio)-N-hydroxyacetamide]: the IC50 against meprin α [1] (triplicate, ± SD) was 11.2 ± 2.6 µM; against human meprin β (triplicate, ± SD), above 100 µM.
For the compound `COc1cc(OC)nc(SCc2nnc(SCC(=O)NO)n2-c2ccc(F)cc2)n1` [SR24463, 2-((5-(((4,6-dimethoxypyrimidin-2-yl)thio)methyl)-4-(4-fluorophenyl)-4H-1,2,4-triazol-3-yl)thio)-N-hydroxyacetamide], the IC50 was 10.4 ± 2.8 µM against meprin α [1] (triplicate, ± SD) and above 100 µM at human meprin β (triplicate, ± SD).
Consider `CCN(CC)c1ccc(-n2c(CSc3nc(OC)cc(OC)n3)nnc2SCC(=O)NO)cc1` [SR26465, 2-((4-(4-(diethylamino)phenyl)-5-(((4,6-dimethoxypyrimidin-2-yl)thio)methyl)-4H-1,2,4-triazol-3-yl)thio)-N-hydroxyacetamide], for which, on meprin α [1] (meprin α over meprin β), the “meprin α/β fold selectivity (ratio of IC50 values)” value is recorded as above 100 fold. For the same compound, the 50% inhibitory concentration (IC50) against meprin α [1] (triplicate, ± SD) amounted to 0.6 ± 0.06 µM; against human meprin β (triplicate, ± SD), 75 ± 15 µM.
With `O=C(CN(Cc1ccc(Cl)c(O)c1F)Cc1ccc(Cl)c(O)c1F)NO` [1c], the “MMP2 % activity remaining” value on MMP2 is 95%. In addition, on MMP13, the “MMP13 % activity remaining” value was 86%. Besides, on ADAM10, the “ADAM10 % activity remaining” value was 86%. Further, the “MMP9 % activity remaining” value at MMP9 was 91%. The IC50 in the test with Meprin α [2] is 0.19 ± 0.001 µM. In addition, the “ADAM17 % activity remaining” value at ADAM17 is given as 86%.
